In patent publication US9765075B2, “Substituted bridged urea analogs as sirtuin modulators” (GLAXOSMITHKLINE LLC, priority 2013, dated 2017):
Where a chain is given by its changes, count along the chain named. Counter-ions that a name gives are not always drawn.

What was measured:
Format in all cases: biochemical
[1] = target: T1, full-length hSIRT1 E230K (Homo sapiens, UniProt Q96EB6, E230K); test: SIRT1 activation dose-response, OAcADPr assay with Ac-p53(W5) substrate; settings: for EC50: hSIRT1 E230K, activation dose-response, Ac-p53(W5) substrate
T1 construct: His6 (C); made in house
T1 sequence (Q96EB6 1-747 E230K): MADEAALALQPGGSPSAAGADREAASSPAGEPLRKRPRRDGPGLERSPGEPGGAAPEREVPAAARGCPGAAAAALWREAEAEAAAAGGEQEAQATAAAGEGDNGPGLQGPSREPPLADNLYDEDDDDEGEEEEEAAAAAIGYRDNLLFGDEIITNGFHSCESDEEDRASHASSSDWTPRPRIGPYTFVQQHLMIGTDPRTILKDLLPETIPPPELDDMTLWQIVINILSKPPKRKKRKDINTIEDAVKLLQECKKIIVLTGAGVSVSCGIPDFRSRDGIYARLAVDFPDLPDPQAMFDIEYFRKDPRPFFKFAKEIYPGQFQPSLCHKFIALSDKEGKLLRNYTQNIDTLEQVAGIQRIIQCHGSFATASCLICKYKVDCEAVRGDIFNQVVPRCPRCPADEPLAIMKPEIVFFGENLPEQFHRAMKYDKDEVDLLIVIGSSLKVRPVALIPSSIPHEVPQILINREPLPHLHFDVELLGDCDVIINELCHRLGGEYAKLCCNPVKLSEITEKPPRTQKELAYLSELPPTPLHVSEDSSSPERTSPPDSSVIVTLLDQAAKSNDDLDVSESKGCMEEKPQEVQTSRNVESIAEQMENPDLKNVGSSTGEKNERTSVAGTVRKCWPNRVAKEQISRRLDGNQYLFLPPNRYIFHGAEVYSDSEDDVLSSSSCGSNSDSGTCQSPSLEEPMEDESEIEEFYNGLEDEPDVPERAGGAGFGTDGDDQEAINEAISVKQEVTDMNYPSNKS

[2] = target: T2, full-length hSIRT1 I227A (Homo sapiens, UniProt Q96EB6, I227A); test: SIRT1 inhibition assay, OAcADPr mass spectrometry
T2 construct: The following point mutants of full-length hSIRT1 were generated; His6 (C); made in house
T2 sequence (Q96EB6 1-747 I227A): T1 sequence (Q96EB6 1-747 E230K) with I227A, K230E

[3] = target: T3, full-length hSIRT1 E230Q (Homo sapiens, UniProt Q96EB6, E230Q); test: SIRT1 inhibition assay, OAcADPr mass spectrometry
T3 construct: His6 (C); made in house
T3 sequence (Q96EB6 1-747 E230Q): T1 sequence (Q96EB6 1-747 E230K) with K230Q

EC50 fold shift (mutant EC50/wild-type EC50) [1]	RVmax fold shift = (wild-type RVmax−1)/(mutant RVmax−1) [1]	EC50 [1]	Compound	IC50 [2]	IC50 [3]
1.46	5.36	700 nM	Cc1cnc2c(NC(=O)N3c4nc(-c5cccc(C(F)(F)F)c5)ccc4N4CC[C@H]3C4)cccc2n1 [Example 8]		
1.46	8.67	3210 nM	O=C(Nc1ccccn1)N1c2nc(-c3cccc(C(F)(F)F)c3)ccc2N2CC[C@H]1C2 [Example 7]		
			CCCC[C@H](NC(=O)[C@H](CC(C)C)NC(=O)[C@H](CCCCNC(=O)C(F)(F)F)NC(=O)[C@H](CCCCN)NC(=O)[C@H](Cc1c[nH]cn1)NC(=O)[C@H](CCCNC(=N)N)NC(C)=O)C(=O)N[C@@H](Cc1ccccc1)C(N)=O [TFA-p53 7-mer, Ac-RHK-K^TFA-L-Nle-F-NH2]	940 ± 60 nM	860 ± 60 nM
